This passage reports Kd results from PMC8769072, “Proteome‐scale mapping of binding sites in the unstructured regions of the human proteome” (Molecular Systems Biology, 2022).

This experiment has as its target T1, SFN 14-3-3 (Homo sapiens, UniProt P31947).
T1 sequence (P31947 1-236): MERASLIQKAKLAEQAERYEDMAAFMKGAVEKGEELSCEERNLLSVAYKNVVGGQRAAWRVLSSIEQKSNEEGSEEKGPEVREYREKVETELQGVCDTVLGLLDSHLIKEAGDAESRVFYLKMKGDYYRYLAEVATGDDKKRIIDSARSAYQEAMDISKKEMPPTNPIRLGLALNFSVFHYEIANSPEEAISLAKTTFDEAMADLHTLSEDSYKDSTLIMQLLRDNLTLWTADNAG
The experiment in a line: FP saturation (direct binding of FITC probe), SFN 14-3-3. The arrangement: P31947; SFN; 14-3-3; 236; pHH0103; Sidhu Lab (PMID: 33438817); made in house; host or cells: bacteria (E. coli BL21(DE3) gold is named only for the phage-selection preparations). Conditions: direct binding of FITC-labeled phospho-RAF1 probe.

Where a SMILES comes first, the peptide text is derived from it. [ ]: non-standard residue; d: D form. The star is where a group is joined. FITC = O=C1OC2(c3ccc(O)cc3Oc3cc(O)ccc32)c2ccc(NC(=S)*)cc21; pS = N[C@@H](COP(=O)(O)O)C(=O)O

Experimental: The protein coding regions (Dataset EV2) were subcloned using the EcoRI and NcoRI restriction site into in pETM41 (EMBL) for the expression of 6‐His‐MBP‐tagged proteins or in the pETM33 (EMBL) vector. • Protein expression was induced at OD600 0.8 with 1 mM IPTG, and allowed to proceed at 18°C for 20 h. • The bacteria were harvested and lysed under the same conditions as described above. • The supernatant was batch purified using the IMAC technique with Ni Sepharose 6 Fast Flow (Cytiva). • After 1 h incubation with the gel slurry, the gel was transferred into a column. • The beads were washed with wash buffer (20 mM NaPO4, 0.5 M NaCl, 30 mM imidazole pH 7.4) and eluted with elution buffer (20 mM NaPO4 0.5 M, NaCl 500 mM imidazole, pH 7.4). The proteins were further purified as follows: • 14‐3‐3 SFN: The protein was not eluted from the IMAC column. Instead, after washing unbound protein away, His‐tagged HRV3C protease was added and incubated for 16 h in 20 mM NaPO4, 0.5 M NaCl, pH 7.4. The cleaved protein was eluted with the same buffer. […]
Peptides were obtained from GeneCust (France) at > 95% purity. […] Data were analyzed with GraphPad Prism version 9.0.0 for MacOS (GraphPad Software, San Diego, California USA, www.graphpad.com). […]

`CC(C)[C@H](NC(=O)[C@H](CC(N)=O)NC(=O)[C@@H]1CCCN1C(=O)[C@@H](NC(=O)[C@H](COP(=O)(O)O)NC(=O)[C@@H](NC(=O)[C@H](CO)NC(=O)[C@H](CCCNC(=N)N)NC(=O)[C@H](CCC(N)=O)NC(=S)Nc1ccc2c(c1)C(=O)OC21c2ccc(O)cc2Oc2cc(O)ccc21)[C@@H](C)O)[C@@H](C)O)C(=O)N[C@@H](Cc1c[nH]cn1)C(N)=O` [RAF_FITC] ({FITC}-QRST[pS]TPNVH-NH2): the affinity, expressed as Kd, was 524 µM.
